Data taken from PubChem BioAssay (NCI).
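Cultured in 96-well plates, cells were exposed to test compound for 48 hours across five concentrations. At the TGI there is no net growth.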

How the values were obtained:
Assay in all cases: NCI tumour cell line growth inhibition, 48 h
786-0 renal = system: 786-0 renal
A498 renal = system: A498 renal
A549 NSCLC = system: A549 NSCLC
ACHN renal = system: ACHN renal
BT-549 breast = system: BT-549 breast
CAKI-1 renal = system: CAKI-1 renal
CCRF-CEM leukemia = system: CCRF-CEM leukemia
COLO 205 colon = system: COLO 205 colon
DLD-1 colon = system: DLD-1 colon
DMS 114 small cell lung = system: DMS 114 small cell lung
DMS 273 small cell lung = system: DMS 273 small cell lung
DU-145 prostate = system: DU-145 prostate
EKVX NSCLC = system: EKVX NSCLC
HCC-2998 colon = system: HCC-2998 colon
HCT-116 colon = system: HCT-116 colon
HCT-15 colon = system: HCT-15 colon
HL-60(TB) leukemia = system: HL-60(TB) leukemia
HOP-18 NSCLC = system: HOP-18 NSCLC
HOP-62 NSCLC = system: HOP-62 NSCLC
HOP-92 NSCLC = system: HOP-92 NSCLC
HT29 colon = system: HT29 colon
IGROV1 ovarian = system: IGROV1 ovarian
K-562 leukemia = system: K-562 leukemia
KM12 colon = system: KM12 colon
KM20L2 colon = system: KM20L2 colon
LOX IMVI melanoma = system: LOX IMVI melanoma
LXFL 529 NSCLC = system: LXFL 529 NSCLC
M14 melanoma = system: M14 melanoma
M19-MEL melanoma = system: M19-MEL melanoma
MALME-3M melanoma = system: MALME-3M melanoma
MCF7 breast = system: MCF7 breast
MDA-MB-231 breast = system: MDA-MB-231 breast
MDA-MB-435 = system: MDA-MB-435
MDA-N = system: MDA-N
MOLT-4 leukemia = system: MOLT-4 leukemia
NCI-H226 lung = system: NCI-H226 lung
NCI-H23 lung = system: NCI-H23 lung
NCI-H460 lung = system: NCI-H460 lung
NCI-H522 lung = system: NCI-H522 lung
OVCAR-3 ovarian = system: OVCAR-3 ovarian
OVCAR-4 ovarian = system: OVCAR-4 ovarian
OVCAR-5 ovarian = system: OVCAR-5 ovarian
OVCAR-8 ovarian = system: OVCAR-8 ovarian
PC-3 prostate = system: PC-3 prostate
RPMI-8226 leukemia = system: RPMI-8226 leukemia
RXF 393 renal = system: RXF 393 renal
RXF-631 renal = system: RXF-631 renal
SF-268 CNS = system: SF-268 CNS
SF-295 CNS = system: SF-295 CNS
SF-539 CNS = system: SF-539 CNS
SK-MEL-2 melanoma = system: SK-MEL-2 melanoma
SK-MEL-28 melanoma = system: SK-MEL-28 melanoma
SK-MEL-5 melanoma = system: SK-MEL-5 melanoma
SK-OV-3 ovarian = system: SK-OV-3 ovarian
SN12C renal = system: SN12C renal
SNB-19 CNS = system: SNB-19 CNS
SNB-75 CNS = system: SNB-75 CNS
SNB-78 CNS = system: SNB-78 CNS
SR leukemia = system: SR leukemia
SW-620 colon = system: SW-620 colon
TK-10 renal = system: TK-10 renal
U251 CNS = system: U251 CNS
UACC-257 melanoma = system: UACC-257 melanoma
UACC-62 melanoma = system: UACC-62 melanoma
UO-31 renal = system: UO-31 renal
XF 498 CNS = system: XF 498 CNS
NCI/ADR-RES ovarian = system: NCI/ADR-RES ovarian
P388 leukemia = system: P388 leukemia
P388/ADR leukemia = system: P388/ADR leukemia
SN12K1 renal = system: SN12K1 renal

CCCCCCCCCCCCCC(=O)NO
TGI (786-0 renal): 18.2 µM
TGI (A498 renal): 63.2 µM
TGI (A549 NSCLC): 42.9 µM
TGI (ACHN renal): 39.3 µM
TGI (BT-549 breast): 33.1 µM
TGI (CAKI-1 renal): 52.4 µM
TGI (CCRF-CEM leukemia): 6.46 µM
TGI (COLO 205 colon): 20.1 µM
TGI (DLD-1 colon): > 94.8 µM
TGI (DMS 114 small cell lung): 27.2 µM
TGI (DMS 273 small cell lung): 27.3 µM
TGI (DU-145 prostate): 29.6 µM
TGI (EKVX NSCLC): 54.1 µM
TGI (HCC-2998 colon): 28.7 µM
TGI (HCT-116 colon): > 94.9 µM
TGI (HCT-15 colon): 26.2 µM
TGI (HL-60(TB) leukemia): 23.7 µM
TGI (HOP-18 NSCLC): 81.6 µM
TGI (HOP-62 NSCLC): 34.6 µM
TGI (HOP-92 NSCLC): 43.6 µM
TGI (HT29 colon): 25.3 µM
TGI (IGROV1 ovarian): 38.3 µM
TGI (K-562 leukemia): 34.8 µM
TGI (KM12 colon): 47.2 µM
TGI (KM20L2 colon): 26 µM
TGI (LOX IMVI melanoma): 15.5 µM
TGI (LXFL 529 NSCLC): 38.7 µM
TGI (M14 melanoma): 36.2 µM
TGI (M19-MEL melanoma): 56.3 µM
TGI (MALME-3M melanoma): 83.8 µM
TGI (MCF7 breast): > 100 µM
TGI (MDA-MB-231 breast): > 100 µM
TGI (MDA-MB-435): 67 µM
TGI (MDA-N): > 100 µM
TGI (MOLT-4 leukemia): > 49 µM
TGI (NCI-H226 lung): 19 µM
TGI (NCI-H23 lung): 31.1 µM
TGI (NCI-H460 lung): 38.3 µM
TGI (NCI-H522 lung): 19.5 µM
TGI (OVCAR-3 ovarian): 28 µM
TGI (OVCAR-4 ovarian): 39.3 µM
TGI (OVCAR-5 ovarian): > 74.1 µM
TGI (OVCAR-8 ovarian): 50.7 µM
TGI (PC-3 prostate): 28.6 µM
TGI (RPMI-8226 leukemia): > 100 µM
TGI (RXF 393 renal): 19 µM
TGI (RXF-631 renal): > 62.5 µM
TGI (SF-268 CNS): 26.9 µM
TGI (SF-295 CNS): 60.9 µM
TGI (SF-539 CNS): 37.9 µM
TGI (SK-MEL-2 melanoma): 47.6 µM
TGI (SK-MEL-28 melanoma): 75.8 µM
TGI (SK-MEL-5 melanoma): 26.5 µM
TGI (SK-OV-3 ovarian): 73.5 µM
TGI (SN12C renal): 38.9 µM
TGI (SNB-19 CNS): 73.2 µM
TGI (SNB-75 CNS): 40 µM
TGI (SNB-78 CNS): > 95 µM
TGI (SR leukemia): > 100 µM
TGI (SW-620 colon): 82.6 µM
TGI (TK-10 renal): 59.4 µM
TGI (U251 CNS): 33.8 µM
TGI (UACC-257 melanoma): 77.3 µM
TGI (UACC-62 melanoma): 11.5 µM
TGI (UO-31 renal): 25.3 µM
TGI (XF 498 CNS): 60.3 µM

NCCCC(N)(C(=O)O)C(F)F (centres undefined)
TGI (A498 renal): > 5000 µM
TGI (A549 NSCLC): > 5000 µM
TGI (CAKI-1 renal): > 5000 µM
TGI (CCRF-CEM leukemia): > 1580 µM
TGI (COLO 205 colon): > 5000 µM
TGI (DLD-1 colon): > 5000 µM
TGI (DMS 114 small cell lung): > 5000 µM
TGI (DMS 273 small cell lung): > 5000 µM
TGI (EKVX NSCLC): > 1260 µM
TGI (HCC-2998 colon): > 5000 µM
TGI (HCT-116 colon): > 5000 µM
TGI (HCT-15 colon): > 5000 µM
TGI (HL-60(TB) leukemia): > 5000 µM
TGI (HOP-18 NSCLC): > 50 µM
TGI (HOP-62 NSCLC): > 5000 µM
TGI (HOP-92 NSCLC): > 5000 µM
TGI (HT29 colon): > 5000 µM
TGI (IGROV1 ovarian): > 5000 µM
TGI (K-562 leukemia): > 5000 µM
TGI (KM12 colon): > 5000 µM
TGI (KM20L2 colon): > 5000 µM
TGI (LOX IMVI melanoma): > 5000 µM
TGI (M19-MEL melanoma): > 5000 µM
TGI (MALME-3M melanoma): > 5000 µM
TGI (MCF7 breast): > 5000 µM
TGI (MOLT-4 leukemia): > 5000 µM
TGI (NCI-H226 lung): > 5000 µM
TGI (NCI-H23 lung): > 5000 µM
TGI (NCI-H460 lung): > 5000 µM
TGI (NCI-H522 lung): > 5000 µM
TGI (NCI/ADR-RES ovarian): > 5000 µM
TGI (OVCAR-3 ovarian): > 5000 µM
TGI (OVCAR-4 ovarian): > 5000 µM
TGI (OVCAR-5 ovarian): > 4800 µM
TGI (OVCAR-8 ovarian): > 1090 µM
TGI (P388 leukemia): > 5000 µM
TGI (P388/ADR leukemia): > 5000 µM
TGI (RPMI-8226 leukemia): > 5000 µM
TGI (RXF 393 renal): > 5000 µM
TGI (SF-268 CNS): > 5000 µM
TGI (SF-295 CNS): > 5000 µM
TGI (SF-539 CNS): > 5000 µM
TGI (SK-MEL-2 melanoma): > 5000 µM
TGI (SK-MEL-28 melanoma): > 5000 µM
TGI (SK-MEL-5 melanoma): > 5000 µM
TGI (SK-OV-3 ovarian): > 5000 µM
TGI (SN12C renal): > 5000 µM
TGI (SN12K1 renal): > 1580 µM
TGI (SNB-19 CNS): > 5000 µM
TGI (SNB-75 CNS): > 5000 µM
TGI (SNB-78 CNS): > 5000 µM
TGI (SW-620 colon): > 5000 µM
TGI (U251 CNS): > 5000 µM
TGI (UACC-257 melanoma): > 5000 µM
TGI (UACC-62 melanoma): > 5000 µM
TGI (UO-31 renal): > 5000 µM

CCC/C=C/C=C\C(=O)O[C@@H]1[C@@H](C)[C@]2(O)[C@@H]3C=C(C)C(=O)[C@H]3CC(COC(C)=O)=C[C@H]2[C@@H]2C(C)(C)[C@]12OC(C)=O
TGI (A498 renal): 33.3 µM
TGI (A549 NSCLC): 97.6 µM
TGI (CAKI-1 renal): 72.2 µM
TGI (CCRF-CEM leukemia): 36.2 µM
TGI (COLO 205 colon): 22.5 µM
TGI (DLD-1 colon): 57.2 µM
TGI (DMS 114 small cell lung): 94.6 µM
TGI (DMS 273 small cell lung): 82.4 µM
TGI (EKVX NSCLC): 105 µM
TGI (HCC-2998 colon): 58.3 µM
TGI (HCT-116 colon): 57.5 µM
TGI (HCT-15 colon): 77.1 µM
TGI (HL-60(TB) leukemia): 30.5 µM
TGI (HOP-18 NSCLC): 109 µM
TGI (HOP-62 NSCLC): 33.8 µM
TGI (HOP-92 NSCLC): 156 µM
TGI (HT29 colon): 84.6 µM
TGI (IGROV1 ovarian): 109 µM
TGI (K-562 leukemia): 128 µM
TGI (KM12 colon): 106 µM
TGI (KM20L2 colon): 88.8 µM
TGI (LOX IMVI melanoma): 57.7 µM
TGI (M19-MEL melanoma): 76.5 µM
TGI (MALME-3M melanoma): 86.6 µM
TGI (MCF7 breast): 83.1 µM
TGI (MOLT-4 leukemia): 85.2 µM
TGI (NCI-H226 lung): > 97.6 µM
TGI (NCI-H23 lung): 98.6 µM
TGI (NCI-H460 lung): 63.7 µM
TGI (NCI-H522 lung): > 89.6 µM
TGI (NCI/ADR-RES ovarian): 114 µM
TGI (OVCAR-3 ovarian): 91.2 µM
TGI (OVCAR-4 ovarian): 51.4 µM
TGI (OVCAR-5 ovarian): 119 µM
TGI (OVCAR-8 ovarian): 116 µM
TGI (P388 leukemia): 9.61 µM
TGI (P388/ADR leukemia): 300 µM
TGI (RPMI-8226 leukemia): 95.8 µM
TGI (RXF 393 renal): 113 µM
TGI (SF-268 CNS): 87.7 µM
TGI (SF-295 CNS): 39.5 µM
TGI (SF-539 CNS): 83.5 µM
TGI (SK-MEL-2 melanoma): 104 µM
TGI (SK-MEL-28 melanoma): 86.7 µM
TGI (SK-MEL-5 melanoma): 108 µM
TGI (SK-OV-3 ovarian): 143 µM
TGI (SN12C renal): 100 µM
TGI (SN12K1 renal): 48.8 µM
TGI (SNB-19 CNS): 114 µM
TGI (SNB-75 CNS): 121 µM
TGI (SNB-78 CNS): 152 µM
TGI (SW-620 colon): 70 µM
TGI (U251 CNS): 69.1 µM
TGI (UACC-257 melanoma): 91.5 µM
TGI (UACC-62 melanoma): 82.5 µM
TGI (UO-31 renal): 92.3 µM
TGI (XF 498 CNS): 16.7 µM
